The results in this text go back to patent US20230322767A1, “ARYL SUBSTITUTED PYRROLO-PYRIDINONES AND THERAPEUTIC USES THEREOF” (Bayer Aktiengesellschaft, priority 2020, published 2023).

Each structure is given as a SMILES string. pIC50: −log10 of the molar value. Like-named read-outs stand apart in the source and are kept apart here.

What all share (type): biochemical
One test has as its target CSNK1A1 (Homo sapiens (Human), UniProt P48729). Put plainly: CSNK1A1 Assay 2 (ADP-Glo, 1 μM ATP). The settings on record: median, read-out: CSNK1A1 Assay 2 IC50 [mol/l] (median). In short, it runs like this: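 ADP-Glo luminescence, taken as ADP formed, reports activity against biotinylated phospho-peptide substrate biotin-Ahx-KRRRAL-pS-VASLPGL at 1 μM ATP.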
(In general: In ADP-Glo the light output rises with the ADP produced.)

The next test has as its target CSNK1D (Homo sapiens (Human), UniProt P48730). Put plainly: CSNK1D Assay (ADP-Glo, 1 μM ATP). As to conditions: median, read-out: CSNK1D IC50 [mol/l] (median). Put shortly: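 Enzyme preincubated with compound 15 min at 22° C in 50 mM HEPES pH 7.5 buffer with 10 mM MgCl2, 1 mM DTT; kinase reaction run at 1 μM ATP with biotinylated peptide substrate. ADP formed was detected by ADP-Glo luminescence as the measure of activity.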

The target in test [1] is wild-type Epidermal Growth Factor Receptor (EGFR) (Homo sapiens (Human), UniProt P00533). In words: WT-EGFR Kinase Assay (TR-FRET, 2 mM ATP). In short, it runs like this:
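TR-FRET read-out of biotinylated peptide phosphorylation, taken as the 665/622 nm ratio after EDTA stop and 1 h detection at 22° C. Kinase: GST fusion of human EGFR aa R669–A1210, given a 15 min compound pre-binding step; reaction run at 2 mM ATP.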
(In general: TR-FRET usually uses a lanthanide donor and a delayed reading to cut background.)

Where [2] appears, read: EGFR Wildtyp 2 mM ATP IC50 [mol/l] (median), median or individual measurements.
The mark [3] stands for this setting: read-out: EGFR Wildtyp 2 mM ATP IC50 [mol/l] (median), median or individual measurements.

CSNK1D, sequence (P48730 whole entry): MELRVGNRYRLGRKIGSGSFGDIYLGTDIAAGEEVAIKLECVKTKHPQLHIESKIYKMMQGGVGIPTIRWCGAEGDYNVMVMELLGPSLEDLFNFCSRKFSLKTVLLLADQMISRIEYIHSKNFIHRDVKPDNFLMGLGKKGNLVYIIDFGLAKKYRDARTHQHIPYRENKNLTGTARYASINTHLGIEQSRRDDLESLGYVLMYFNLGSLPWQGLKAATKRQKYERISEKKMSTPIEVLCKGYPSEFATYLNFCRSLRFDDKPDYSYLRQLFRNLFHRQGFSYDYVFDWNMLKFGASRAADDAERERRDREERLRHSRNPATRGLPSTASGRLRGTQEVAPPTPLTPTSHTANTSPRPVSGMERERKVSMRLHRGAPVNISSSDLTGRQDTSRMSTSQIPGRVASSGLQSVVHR
wild-type Epidermal Growth Factor Receptor (EGFR), sequence (P00533 669-1210): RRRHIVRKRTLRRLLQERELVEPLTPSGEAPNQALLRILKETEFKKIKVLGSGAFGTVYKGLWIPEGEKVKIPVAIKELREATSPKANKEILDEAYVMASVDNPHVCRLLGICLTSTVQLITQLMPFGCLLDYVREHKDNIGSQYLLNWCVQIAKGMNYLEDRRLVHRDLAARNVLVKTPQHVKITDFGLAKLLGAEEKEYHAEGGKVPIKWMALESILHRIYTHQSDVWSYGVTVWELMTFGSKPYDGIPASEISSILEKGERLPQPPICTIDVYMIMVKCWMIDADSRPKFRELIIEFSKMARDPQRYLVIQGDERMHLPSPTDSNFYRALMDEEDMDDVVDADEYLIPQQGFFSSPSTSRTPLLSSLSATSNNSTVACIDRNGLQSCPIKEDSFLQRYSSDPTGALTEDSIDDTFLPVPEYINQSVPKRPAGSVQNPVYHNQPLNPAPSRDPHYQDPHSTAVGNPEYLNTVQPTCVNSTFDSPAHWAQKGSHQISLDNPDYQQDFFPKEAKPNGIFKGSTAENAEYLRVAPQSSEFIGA
CSNK1A1, sequence (P48729 whole entry): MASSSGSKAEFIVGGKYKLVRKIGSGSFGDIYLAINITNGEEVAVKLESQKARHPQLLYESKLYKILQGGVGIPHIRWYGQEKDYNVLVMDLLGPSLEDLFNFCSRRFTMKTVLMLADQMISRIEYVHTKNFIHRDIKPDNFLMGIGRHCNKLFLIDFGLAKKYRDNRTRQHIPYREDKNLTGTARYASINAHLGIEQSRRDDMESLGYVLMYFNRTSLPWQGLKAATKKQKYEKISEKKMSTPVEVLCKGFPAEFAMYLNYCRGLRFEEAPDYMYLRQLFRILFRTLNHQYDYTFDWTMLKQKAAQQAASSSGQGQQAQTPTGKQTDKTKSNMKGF

Consider `CC(C(=O)Nc1cc(-c2[nH]c3c(c2-c2ccc(F)cc2)C(=O)NC(C)(C)C3)ccn1)c1ccc(F)cc1` (racemic) [Example 94, 2-(4-fluorophenyl)-N-{4-[3-(4-fluorophenyl)-6,6-dimethyl-4-oxo-4,5,6,7-tetrahydro-1H-pyrrolo[3,2-c]pyridin-2-yl]pyridin-2-yl}propanamide], for which the figures for the pIC50 (on CSNK1A1; at CSNK1D; in test [1] (setting [2])) were 8.52, 8.49 and less than 4.70, respectively.

Take `O=C(Cc1ccc(F)cc1)Nc1cc(-c2[nH]c3cc[nH]c(=O)c3c2-c2ccccc2)ccn1` [Example 73, 2-(4-fluorophenyl)-N-[4-(4-oxo-3-phenyl-4,5-dihydro-1H-pyrrolo[3,2-c]pyridin-2-yl)pyridin-2-yl]acetamide]: the pIC50 at CSNK1A1 was 8.72; on CSNK1D it was 8.27; in test [1] (setting [3]), less than 4.70.

In the case of `CC1(C)Cc2[nH]c(-c3ccnc(NC(=O)Cc4ccc(F)cc4)c3)c(-c3ccc(F)cc3)c2C(=O)N1` [Example 83, 2-(4-fluorophenyl)-N-{4-[3-(4-fluorophenyl)-6,6-dimethyl-4-oxo-4,5,6,7-tetrahydro-1H-pyrrolo[3,2-c]pyridin-2-yl]pyridin-2-yl}acetamide], the pIC50 was 8.72 at CSNK1A1, 8.46 on CSNK1D and less than 4.70 in test [1] (setting [3]).

With `Cn1ccc2[nH]c(-c3ccnc(NC(=O)C(CC(F)F)c4ccc(F)cc4)c3)c(-c3ccc(F)cc3)c2c1=O` (single isomer, unassigned; (+)) [Example 109, (+)-4,4-difluoro-2-(4-fluorophenyl)-N-{4-[3-(4-fluorophenyl)-5-methyl-4-oxo-4,5-dihydro-1H-pyrrolo[3,2-c]pyridin-2-yl]pyridin-2-yl}butanamide], the pIC50 is 8.68 on CSNK1A1, 8.43 at CSNK1D and 5.41 in test [1] (setting [2]).

Take `CN1CCc2[nH]c(-c3ccnc(NC(=O)Cc4ccc(C(=O)N5CCNCC5)cc4)c3)c(-c3ccc(F)cc3)c2C1=O` [Example 144, N-{4-[3-(4-fluorophenyl)-5-methyl-4-oxo-4,5,6,7-tetrahydro-1H-pyrrolo[3,2-c]pyridin-2-yl]pyridin-2-yl}-2-[4-(piperazine-1-carbonyl)phenyl]acetamide]: the pIC50 is 8.70 at CSNK1A1, 8.52 on CSNK1D and 5.44 in test [1] (setting [3]).

Turning to `CC(C(=O)Nc1cc(-c2[nH]c3ccn(C)c(=O)c3c2-c2cccc(Cl)c2)ccn1)c1ccc(F)cc1` (racemic) [Example 106, N-{4-[3-(3-chlorophenyl)-5-methyl-4-oxo-4,5-dihydro-1H-pyrrolo[3,2-c]pyridin-2-yl]pyridin-2-yl}-2-(4-fluorophenyl)propanamide], the pIC50 at CSNK1A1 was 8.04; at CSNK1D it was 7.96; in test [1] (setting [2]) it was less than 4.70.

In the case of `O=C(Nc1cc(-c2[nH]c3ccn(C4CC4)c(=O)c3c2-c2ccccc2)ccn1)C(CC(F)F)c1ccc(F)cc1` (single isomer, unassigned) [Example 157, (2R or S)—N-[4-(5-cyclopropyl-4-oxo-3-phenyl-4,5-dihydro-1H-pyrrolo[3,2-c]pyridin-2-yl)pyridin-2-yl]-4,4-difluoro-2-(4-fluorophenyl)butanamide], the pIC50 on CSNK1A1 is 8.70; on CSNK1D, 8.64; in test [1] (setting [2]), less than 4.70.

On to `CC(C(=O)Nc1cc(-c2[nH]c3ccn(C)c(=O)c3c2-c2cccs2)ccn1)c1ccc(F)cc1` (racemic) [Example 130, 2-(4-fluorophenyl)-N-{4-[5-methyl-4-oxo-3-(2-thienyl)-4,5-dihydro-1H-pyrrolo[3,2-c]pyridin-2-yl]pyridin-2-yl}propanamide], for which the pIC50 at CSNK1A1 was 8.62; at CSNK1D it was 8.41; in test [1] (setting [2]), less than 4.70.

As to `CC(C(=O)Nc1cc(-c2[nH]c3ccn(C)c(=O)c3c2-c2ccnc(N)c2)ccn1)c1ccc(F)cc1` (racemic) [Example 126, N-{4-[3-(2-aminopyridin-4-yl)-5-methyl-4-oxo-4,5-dihydro-1H-pyrrolo[3,2-c]pyridin-2-yl]pyridin-2-yl}-2-(4-fluorophenyl)propanamide], the pIC50 on CSNK1A1 was 7.26; at CSNK1D it was 7.20; in test [1] (setting [2]) it was less than 4.70.

Turning to `CC(C(=O)Nc1cc(-c2[nH]c3ccn(C)c(=O)c3c2-c2ccoc2)ccn1)c1ccc(F)cc1` (racemic) [Example 115, 2-(4-fluorophenyl)-N-{4-[3-(3-furyl)-5-methyl-4-oxo-4,5-dihydro-1H-pyrrolo[3,2-c]pyridin-2-yl]pyridin-2-yl}propanamide], the results for the pIC50 (at CSNK1A1; at CSNK1D; in test [1] (setting [2])) were 8.66, 8.25 and less than 4.70, respectively.

As for `CN1CCc2[nH]c(-c3ccnc(NC(=O)C(CC(F)F)c4ccc(F)cc4)c3)c(-c3cscn3)c2C1=O` (racemic) [Example 138, 4,4-difluoro-2-(4-fluorophenyl)-N-{4-[5-methyl-4-oxo-3-(1,3-thiazol-4-yl)-4,5,6,7-tetrahydro-1H-pyrrolo[3,2-c]pyridin-2-yl]pyridin-2-yl}butanamide], the values for the pIC50 (on CSNK1A1; on CSNK1D; in test [1] (setting [2])) were 8.05, 8.06 and less than 4.70, respectively.

As to `Cn1ccc2[nH]c(-c3ccnc(NC(=O)C(CC(F)F)c4ccc(F)cc4)c3)c(-c3ccc(F)cc3)c2c1=O` (racemic) [Example 107, 4,4-difluoro-2-(4-fluorophenyl)-N-{4-[3-(4-fluorophenyl)-5-methyl-4-oxo-4,5-dihydro-1H-pyrrolo[3,2-c]pyridin-2-yl]pyridin-2-yl}butanamide], the figures for the pIC50 (at CSNK1A1; on CSNK1D; in test [1] (setting [2])) were 8.46, 8.36 and less than 4.70, respectively.

With `O=C(Nc1cc(-c2[nH]c3ccn(C4CC4)c(=O)c3c2-c2ccccc2)ccn1)C(CC(F)F)c1ccc(F)cc1` (racemic) [Example 137, N-[4-(5-cyclopropyl-4-oxo-3-phenyl-4,5-dihydro-1H-pyrrolo[3,2-c]pyridin-2-yl)pyridin-2-yl]-4,4-difluoro-2-(4-fluorophenyl)butanamide], the pIC50 was 8.59 on CSNK1A1, 8.52 at CSNK1D and less than 4.70 in test [1] (setting [2]).

Turning to `CC(C(=O)Nc1cc(-c2[nH]c3ccn(C)c(=O)c3c2-c2ccc(F)cc2)ccn1)c1ccc(F)cc1` (single isomer, unassigned; (-)) [Example 101, (−)-2-(4-fluorophenyl)-N-{4-[3-(4-fluorophenyl)-5-methyl-4-oxo-4,5-dihydro-1H-pyrrolo[3,2-c]pyridin-2-yl]pyridin-2-yl}propanamide], the pIC50 was 7.92 at CSNK1A1, 8.25 at CSNK1D and 7.49 in test [1] (setting [2]).

Take `CC(C(=O)Nc1cc(-c2[nH]c3c(c2-c2ccccc2)C(=O)N(C)CC3)ccn1)c1ccncc1` (single isomer, unassigned) [Example 155, N-[4-(5-methyl-4-oxo-3-phenyl-4,5,6,7-tetrahydro-1H-pyrrolo[3,2-c]pyridin-2-yl)pyridin-2-yl]-2-(pyridin-4-yl)propanamide]: the pIC50 at CSNK1A1 is 8.89; at CSNK1D, 8.70; in test [1] (setting [2]), less than 4.70.

`O=C(Nc1cc(-c2[nH]c3c(c2-c2ccccc2)C(=O)N(C2CC2)CC3)ccn1)C(CC(F)F)c1ccc(F)cc1` (racemic) [Example 156, (2RS)—N-(4-(5-cyclopropyl-4-oxo-3-phenyl-4,5,6,7-tetrahydro-1H-pyrrolo[3,2-c]pyridin-2-yl)pyridin-2-yl)-4,4-difluoro-2-(4-fluorophenyl)butanamide]: the pIC50 at CSNK1A1 was 8.64; on CSNK1D, 8.51; in test [1] (setting [2]), less than 4.70.

For `Cn1cc(CC(F)(F)F)c2[nH]c(-c3ccnc(NC(=O)C(CC(F)F)c4ccc(F)cc4)c3)c(-c3ccccn3)c2c1=O` (racemic) [Example 162, (2RS)-4,4-difluoro-2-(4-fluorophenyl)-N-{4-[5-methyl-4-oxo-3-(pyridin-2-yl)-7-(2,2,2-trifluoroethyl)-4,5-dihydro-1H-pyrrolo[3,2-c]pyridin-2-yl]pyridin-2-yl}butanamide], the values for the pIC50 (on CSNK1A1; at CSNK1D; in test [1] (setting [2])) were 7.85, 7.92 and less than 4.70, respectively.

Regarding `Cc1ncc(-c2c(-c3ccnc(NC(=O)C(CC(F)F)c4ccc(F)cc4)c3)[nH]c3c2C(=O)N(C)CC3)s1` (racemic) [Example 129, 4,4-difluoro-2-(4-fluorophenyl)-N-{4-[5-methyl-3-(2-methyl-1,3-thiazol-5-yl)-4-oxo-4,5,6,7-tetrahydro-1H-pyrrolo[3,2-c]pyridin-2-yl]pyridin-2-yl}butanamide], the pIC50 on CSNK1A1 was 7.82; on CSNK1D it was 7.89; in test [1] (setting [2]), less than 4.70.

`CC(C(=O)Nc1cc(-c2[nH]c3ccn(C)c(=O)c3c2-c2ccco2)ccn1)c1ccc(F)cc1` (racemic) [Example 116, 2-(4-fluorophenyl)-N-{4-[3-(2-furyl)-5-methyl-4-oxo-4,5-dihydro-1H-pyrrolo[3,2-c]pyridin-2-yl]pyridin-2-yl}propanamide]: the pIC50 on CSNK1A1 is 8.48; on CSNK1D, 8.11; in test [1] (setting [2]), less than 5.24; in test [1] (setting [3]), less than 5.24.
